Experimental data published in publication PMC13672995, “NCR13 peptide protects soybean against Cercospora sojina using multi-faceted modes of action and additive interaction with chemical fungicides” (Journal of Experimental Botany, 2025).
Values after ≈ are worked out from the molar mass of the structure shown. Like-named read-outs stand apart in the source and are kept apart here. Where a SMILES comes first, the peptide text is derived from it.

Experiments:
Format in all cases: cell-based, Cercospora sojina
[1] = tested on: C. sojina QoI fungicide-resistant isolate Cs350; settings: for MIC (μM) against C. sojina, Fungicide resistant, Cs350: 48 h; for fold increase of MIC with increasing iron concentration: FeSO4 in SFM
Description: (§1) In vitro antifungal activity of AFPs and QoI fungicides was determined using 96-well plate assays as described ([Velivelli et al., 2020]) with slight modifications. Briefly, 2- to 3-week-old C. sojina was used to make a conidial suspension in 2× SFM at the final concentration of ∼10^5 conidia ml^−1. Simultaneously, peptide dilutions (in water) at various concentrations were made. Fungicides were dissolved in 50% acetone and 50% water to make a stock solution of 500 µM, and serial dilutions were made in water as needed. The peptide–conidia or the fungicide–conidia mixture at the ratio of 1:1 (45 µl:45 µl) was added in a 96-well plate and incubated at room temperature for 48 h, after which MICs of the peptides/fungicides were calculated based on microscopy as well as the resazurin cell viability assay ([Velivelli et al., 2020]).

[2] = tested on: C. sojina QoI fungicide-sensitive isolate Cs320; assay: microbe, parasite or virus in culture; settings: for MIC (μM) against C. sojina isolates, Fungicide sensitive, Cs320 / MIC: 48 h; for MIC: Cercospora sojina, read-out: MIC (µM) against Fungicide sensitive C. sojina isolate (Cs320); for MIC (µM) against Fungicide sensitive C. sojina isolate (Cs320): QoI fungicides, determined in 2 days, 0.02 µM lowest concentration tested
Description: as §1

[3] = tested on: C. sojina Cs350 (fungicide resistant); assay: Peptide-fungicide checkerboard assay; settings: for MIC: Cercospora sojina, SHAM 60 µg ml–1, microscopy, read-out: Individual MIC; for MIC / interaction with NCR13_PFV1 by FIC index: 96 h; for MIC / FIC score: Cs350, 4 d; for interaction with NCR13_PFV1 by FIC index: Cs350, in vitro
Description: Synergy between NCR13_PFV1 and the widely used QoI foliar fungicides, azoxystrobin (Sigma-Aldrich, Cat No: 31697), trifloxystrobin (Sigma-Aldrich, Cat No: 46447), and pyraclostrobin (Sigma-Aldrich, Cat No: 33696), were evaluated using checkerboard assays. This assay was performed in a 96-well plate and the preparation of conidial suspension, peptide dilutions, and fungicide dilutions were similar to the in vitro antifungal activity assay described above. The presence of an alternative respiration pathway allows some fungi including C. sojina to germinate even in the presence of a high dose of QoI fungicides in vitro ([Ziogas et al., 1997]; [Zhang et al., 2012]). Therefore, to prevent alternative respiration in C. sojina, salicylhydroxamic acid (SHAM) was added in each reaction at the final concentration of 60 µg ml^–1 ([Zhang et al., 2012]). The conidia, peptide, fungicide, and SHAM were added in a 96-well plate at the v/v ratio of 4:1:1:2 (50 µl:12.5 µl:12.5 µl:25 µl) in the final reaction volume of 100 µl, and the plate was incubated at room temperature for 96 h (4 d). After 96 h, MIC values of the peptide–fungicide combination, peptide alone, and fungicide alone were calculated based on microscopy as well as the resazurin cell viability assay. The fractional inhibitory concentration (FIC) index was calculated using the formula FIC = (MICA+B/MICA) + (MICB+A/MICB), where MICA and MICB are the MIC for peptide (A) alone and fungicide (B) alone, respectively, MICA+B is the MIC for peptide in combination with fungicide (A+B), and MICB+A is the MIC for fungicide in combination with peptide (B+A). The FIC index was interpreted as: synergistic, ≤0.5; additive, >0.5–1.0; indifferent, >1 to <4.0; or antagonistic, ≥4.0.

[4] = pair pyraclostrobin / NCR13_PFV1

Structure (SMILES): CC[C@H](C)[C@H](NC(=O)[C@H](CCCNC(=N)N)NC(=O)[C@H](CS)NC(=O)[C@H](CCCNC(=N)N)NC(=O)CNC(=O)[C@@H](N)CO)C(=O)N[C@@H](CC(C)C)C(=O)N[C@@H](Cc1ccccc1)C(=O)N[C@@H](CCCNC(=N)N)C(=O)N[C@@H](Cc1c[nH]c2ccccc12)C(=O)N[C@@H](Cc1ccccc1)C(=O)N[C@@H](Cc1c[nH]c2ccccc12)C(=O)N[C@H](C(=O)N[C@@H](CCCCN)C(=O)N[C@@H](CC(N)=O)C(=O)N[C@@H](CS)C(=O)O)[C@@H](C)O [GMA1C_V2] (H-SGRCRILFRWFWTKNC-OH)
- MIC (μM) against C. sojina, Fungicide resistant, Cs350 [1]: 6 µM (≈ 12.4 µg/mL)

Structure (SMILES): CC[C@H](C)[C@H](NC(=O)[C@H](CCCNC(=N)N)NC(=O)[C@H](CS)NC(=O)[C@H](CCCNC(=N)N)NC(=O)CNC(=O)[C@@H](N)CO)C(=O)N[C@@H](CC(C)C)C(=O)N[C@@H](Cc1ccccc1)C(=O)N[C@@H](CCCNC(=N)N)C(=O)N[C@@H](Cc1c[nH]c2ccccc12)C(=O)N[C@@H](Cc1ccc(O)cc1)C(=O)N[C@@H](Cc1ccccc1)C(=O)N[C@H](C(=O)N[C@@H](CCCCN)C(=O)N[C@@H](CC(N)=O)C(=O)N[C@@H](CS)C(=O)O)[C@@H](C)O [GMA1C_V3] (H-SGRCRILFRWYFTKNC-OH)
- MIC (μM) against C. sojina, Fungicide resistant, Cs350 [1]: 6 µM (≈ 12.3 µg/mL)

Structure (SMILES): CC[C@H](C)[C@H](NC(=O)[C@H](CCCNC(=N)N)NC(=O)[C@@H](NC(=O)[C@H](Cc1ccccc1)NC(=O)[C@H](Cc1c[nH]c2ccccc12)NC(=O)[C@H](Cc1ccccc1)NC(=O)[C@H](CCCNC(=N)N)NC(=O)[C@H](CCCNC(=N)N)NC(=O)[C@H](CC(C)C)NC(=O)[C@H](Cc1ccccc1)NC(=O)CNC(=O)[C@H](CCCCN)NC(=O)[C@H](CS)NC(=O)[C@H](CCCNC(=N)N)NC(=O)CNC(=O)CN)[C@@H](C)O)C(=O)N[C@@H](CS)C(=O)O [GMA4CG_V7] (H-GGRCKGFLRRFWFTRIC-OH)
- MIC (μM) against C. sojina, Fungicide resistant, Cs350 [1]: 6 µM (≈ 12.6 µg/mL)

Structure (SMILES): CC[C@H](C)[C@H](NC(=O)[C@H](CCCNC(=N)N)NC(=O)[C@@H](NC(=O)[C@H](Cc1c[nH]c2ccccc12)NC(=O)[C@H](Cc1ccc(O)cc1)NC(=O)[C@H](Cc1c[nH]c2ccccc12)NC(=O)[C@H](CCCNC(=N)N)NC(=O)[C@H](CCCNC(=N)N)NC(=O)[C@H](CC(C)C)NC(=O)[C@H](Cc1ccccc1)NC(=O)CNC(=O)[C@H](CCCCN)NC(=O)[C@H](CS)NC(=O)[C@H](CCCNC(=N)N)NC(=O)CNC(=O)CN)[C@@H](C)O)C(=O)N[C@@H](CS)C(=O)O [GMA4CG_V8] (H-GGRCKGFLRRWYWTRIC-OH)
- MIC (μM) against C. sojina, Fungicide resistant, Cs350 [1]: 6 µM (≈ 13 µg/mL)

Structure (SMILES): C[C@H](NC(=O)CN)C(=O)N[C@@H](CS)C(=O)N[C@@H](Cc1c[nH]cn1)C(=O)N[C@@H](CCCNC(=N)N)C(=O)N[C@@H](CCC(N)=O)C(=O)NCC(=O)N[C@@H](Cc1ccccc1)C(=O)NCC(=O)N[C@@H](Cc1ccccc1)C(=O)N[C@@H](C)C(=O)N[C@@H](Cc1c[nH]c2ccccc12)C(=O)N[C@@H](Cc1ccccc1)C(=O)N[C@@H](Cc1c[nH]c2ccccc12)C(=O)N[C@@H](Cc1ccc(O)cc1)C(=O)N[C@@H](CCCCN)C(=O)N[C@@H](CCCCN)C(=O)N[C@@H](CS)C(=O)O [GMA5AC_V1] (H-GACHRQGFGFAWFWYKKC-OH; N-terminus and C-terminus assumed)
- MIC (μM) against C. sojina, Fungicide resistant, Cs350 [1]: 6 µM (≈ 13.2 µg/mL)

Structure (SMILES): C[C@H](NC(=O)CN)C(=O)N[C@@H](CS)C(=O)N[C@@H](Cc1c[nH]cn1)C(=O)N[C@@H](CCCNC(=N)N)C(=O)N[C@@H](CCC(N)=O)C(=O)NCC(=O)N[C@@H](Cc1ccccc1)C(=O)NCC(=O)N[C@@H](Cc1ccccc1)C(=O)N[C@@H](C)C(=O)N[C@@H](Cc1ccccc1)C(=O)N[C@@H](Cc1ccccc1)C(=O)N[C@@H](Cc1ccccc1)C(=O)N[C@@H](Cc1ccc(O)cc1)C(=O)N[C@@H](CCCCN)C(=O)N[C@@H](CCCCN)C(=O)N[C@@H](CS)C(=O)O [GMA5AC_V2] (H-GACHRQGFGFAFFFYKKC-OH; N-terminus and C-terminus assumed)
- MIC (μM) against C. sojina, Fungicide resistant, Cs350 [1]: 6 µM (≈ 12.7 µg/mL)

Structure (SMILES): CC(C)C[C@H](NC(=O)[C@H](CS)NC(=O)[C@H](C)NC(=O)CN)C(=O)N[C@@H](CCCCN)C(=O)N[C@@H](CC(N)=O)C(=O)N[C@@H](CCCNC(=N)N)C(=O)N[C@@H](Cc1c[nH]cn1)C(=O)N[C@@H](CO)C(=O)N[C@@H](CCCCN)C(=O)N[C@@H](Cc1c[nH]cn1)C(=O)N[C@@H](Cc1ccc(O)cc1)C(=O)NCC(=O)N[C@@H](Cc1c[nH]c2ccccc12)C(=O)N[C@@H](Cc1ccccc1)C(=O)N[C@@H](Cc1c[nH]c2ccccc12)C(=O)N[C@@H](Cc1ccc(O)cc1)C(=O)N[C@@H](Cc1ccc(O)cc1)C(=O)N[C@@H](CCCNC(=N)N)C(=O)N[C@@H](Cc1c[nH]cn1)C(=O)N[C@@H](CS)C(=O)N[C@@H](Cc1ccc(O)cc1)C(=O)O [GMAOe1C_V1] (H-GACLKNRHSKHYGWFWYYRHCY-OH; N-terminus and C-terminus assumed)
- MIC (μM) against C. sojina, Fungicide resistant, Cs350 [1]: 3 to 6 µM

Structure (SMILES): CC(C)[C@H](NC(=O)[C@H](CCCCN)NC(=O)[C@@H]1CCCN1C(=O)[C@H](CCCCN)NC(=O)[C@H](CCCNC(=N)N)NC(=O)[C@H](CS)NC(=O)[C@H](C)NC(=O)[C@H](Cc1ccccc1)NC(=O)[C@H](CCCCN)NC(=O)[C@@H](N)CCCCN)C(=O)N1CCC[C@H]1C(=O)N[C@@H](CCCCN)C(=O)N[C@@H](CS)C(=O)O [NCR13_V7] (H-KKFACRKPKVPKC-OH; N-terminus and C-terminus assumed)
- MIC (μM) against C. sojina, Fungicide resistant, Cs350 [1]: 12 µM (≈ 18.4 µg/mL)
- fold increase of MIC with increasing iron concentration [1]: 2 fold
- MIC (μM) against C. sojina isolates, Fungicide sensitive, Cs320 [2]: 6 µM (≈ 9.2 µg/mL)

Structure (SMILES): N=C(N)NCCC[C@H](NC(=O)[C@H](CS)NC(=O)[C@H](Cc1c[nH]c2ccccc12)NC(=O)[C@H](Cc1ccccc1)NC(=O)[C@H](CCCCN)NC(=O)[C@@H](N)CCCCN)C(=O)N[C@@H](CCCCN)C(=O)N1CCC[C@H]1C(=O)N[C@@H](CCCCN)C(=O)N[C@@H](Cc1c[nH]c2ccccc12)C(=O)N1CCC[C@H]1C(=O)N[C@@H](CCCCN)C(=O)N[C@@H](CS)C(=O)O [NCR13_V9] (H-KKFWCRKPKWPKC-OH; N-terminus and C-terminus assumed)
- MIC (μM) against C. sojina, Fungicide resistant, Cs350 [1]: 6 µM (≈ 10.4 µg/mL)
- fold increase of MIC with increasing iron concentration [1]: 2 fold
- MIC (μM) against C. sojina isolates, Fungicide sensitive, Cs320 [2]: 3 µM (≈ 5.21 µg/mL)

Structure (SMILES): COC(=O)N(OC)c1ccccc1COc1ccn(-c2ccc(Cl)cc2)n1 [Pyraclostrobin, pyraclostrobin]
- MIC [2]: < 0.02 µM
- MIC (µM) against Fungicide sensitive C. sojina isolate (Cs320) [2]: <0.02 µM
- MIC [3, 4]: 24 µM
- interaction with NCR13_PFV1 by FIC index [3]: additive (additive, >0.5–1.0)
- FIC score [3, 4]: ≤ 1

Structure (SMILES): CON=C(C(=O)OC)c1ccccc1CON=C(C)c1cccc(C(F)(F)F)c1 [Trifloxystrobin, trifloxystrobin]
- MIC [2]: < 0.02 µM
- MIC (µM) against Fungicide sensitive C. sojina isolate (Cs320) [2]: <0.02 µM
- MIC ([3]; pair trifloxystrobin / NCR13_PFV1, highest fungicide concentration 48 µM): > 48 µM
- interaction with NCR13_PFV1 by FIC index [3]: additive (additive, >0.5–1.0)
- FIC score ([3]; pair trifloxystrobin / NCR13_PFV1): ≤ 1
